Data from patent US10639298B2 (Biohaven Pharmaceutical Holding Company Ltd., priority 2015, dated 2020).

Experiments:
[1] = Rat pharmacokinetic studies of prodrug and released riluzole (IV or oral); format: in vivo, Sprague-Dawley rats
Procedure: Rat Pharmacokinetic Studies of the Compounds of the Disclosure:
Blood samples were collected at pre-determined time points including a 0 h time point and usually between 7 and 8 additional time points not exceeding a 24 h period.
Plasma samples were extracted and analyzed using the methods described in Plasma Sample Extraction and Analysis. All data are expressed as ng/mL of the free base. Samples that were below the limit of quantification (0.5 ng/mL) were not used in the calculation of averages.
Pharmacokinetic parameters were calculated from the time course of the plasmaconcentrations. Pharmacokinetic parameters were determined with Phoenix Winnonlin (v6.3) software using a non-compartmental model. The maximum plasma concentration (Cmax) and time to the maximum plasma concentration (Tmax) of the compound of the disclosure were observed from the data. The area under the concentration-time curve (AUC) of the compound of the disclosure was calculated using the trapezoidal formula with calculation to the last quantifiable data point, and to infinity if applicable. Plasma half-life (t½) was calculated from 0.693/slope of the terminal elimination phase. Mean residence time, MRT, was calculated by dividing the area under the moment curve (AUMC) by the AUC. Any samples below the limit of quantitation (0.5 ng/mL) were treated as zero for pharmacokinetic data analysis.
Plasma Sample Extraction and Analysis:
Analytical stock solutions (1.00 mg/mL of the free compound of the disclosure) were prepared in DMSO. Standards were prepared in diluted matrix containing 1 part 10% formic acid and 9 parts Sprague-Dawley rat plasma containing sodium heparin as the anticoagulant (pre-diluted with 1 part of 0.5M citric acid and 9 parts whole blood). Working solutions were prepared in 50:50 acetonitrile:water. Working solutions were then added to plasma to make calibration standards to final concentrations of 1000, 500, 100, 50, 10, 5, 1, and 0.5 ng/mL. Standards contained both the test article and riluzole. Standards were treated identically to the study samples.
Plasma samples were extracted via acetonitrile precipitation on a Tomtec Quadra 96-Model 320 liquid handling system in a 96-well plate format.

Melanoma C8161 cells = assay: Inhibition of human melanoma cell xenograft growth; format: in vivo, nude mice; conditions: P<0.01 (t test)
Procedure: Melanoma C8161 cells were inoculated s.c. into nude mice at […]. […] Mice were treated every day for 21 days, and tumor sizes were measured twice weekly with a Vernier caliper.

[2] = fasted male Sprague Dawley rats, IV, prodrug dose 2.8 mg/Kg
[3] = fasted male Sprague Dawley rats, PO 14.6 mg/kg

Compound of the disclosure AUClast [1, 2]: 1526 ng·h/mL
Compound of the disclosure Cl [1, 2]: 29.7 mL/min/kg
Compound of the disclosure Vss [1, 2]: 3.57 L/kg
Compound of the disclosure t1/2 ([1]; fasted male Sprague Dawley rats, IV, prodrug dose 2.8 mg/Kg, 2.8 mg/kg): 1.92 h
Prodrug AUClast (Mean) [1, 3]: 2259 ng·h/mL
Prodrug Cmax (Mean) [1, 3]: 213 ng/mL
Prodrug t1/2 (Mean) [1, 3]: 3.8 h
Prodrug tmax (Mean) [1, 3]: 1.80 h
Half life on conversion to Riluzole ([1]; intravenous administration): moderate to long half life
Half life on conversion to Riluzole ([1]; oral administration): long half life
Oral bioavailability ([1]; oral administration): high oral bioavailability
AUC(0-t) ([1]; rat, plasma, fasted male Sprague Dawley rats, IV, prodrug dose 2.8 mg/Kg, read-out: Compound of the disclosure AUClast): 1600 ng·h/mL
clearance ([1]; rat, plasma, fasted male Sprague Dawley rats, IV, prodrug dose 2.8 mg/Kg, read-out: Compound of the disclosure Cl (converted)): 27.8 mL/min/kg
Vd ([1]; rat, plasma, fasted male Sprague Dawley rats, IV, prodrug dose 2.8 mg/Kg, read-out: Compound of the disclosure Vss): 3.51 L/kg
SMILES: CN(CC(=O)Nc1nc2ccc(OC(F)(F)F)cc2s1)C(=O)CNC(C)(C)C [Example 125, 2-(tert-butylamino)-N-methyl-N-(2-oxo-2-((6-(trifluoromethoxy)benzo[d]thiazol-2-yl)amino)ethyl)acetamide]
Tumor volume vs untreated or vehicle-treated controls (Melanoma C8161 cells; 4.9 mg/kg (threefold lower in molar terms) p.o. gavage every day for 21 days): significant reduction in tumor volume
Tumor volume vs untreated or vehicle-treated controls (Melanoma C8161 cells; 14.6 mg/kg (equimolar to riluzole) p.o. gavage every day for 21 days): significant reduction in tumor volume
